Measured values: patent publication US20190183927A1, “MEDICAL AND NUTRITIONAL COMPOSITIONS AND METHODS OF USE” (Sulfilatec, Inc., priority 2016, published 2019)
“Also recorded” adds a separate entry of the source.

How the values were obtained:
[1] = Serum Br^− concentration in Dahl rats after 10 weeks on diet (mass spectrometry)
Protocol: (FIG. 2A) Serum Br^− concentrations from rats fed a daily diet over 10 weeks of “AIN-76A”, “AIN-76A+8% NaCl”, “AIN-76A+Br”, or “AIN-76A+8% NaCl+Br”. […] The two diets containing 8% NaCl (eg. “AIN-76A+8% NaCl” and “AIN-76A+8% NaCl+Br”) were fed to Dahl rats while the remaining two diets (eg. “AIN-76A” and “AIN-76A+Br”) were fed to SHR, as indicated in panel A. Serum Br^− measurements were determined using mass spectrometry.
Thus, Dahl rats were fed a diet supplemented with 8% NaCl (AIN76A base diet) over the course of 10 weeks.
To test the invention, another group of Dahl rats were administered AIN76A supplemented with 8% NaCl and 300 mg NaBr per kg of food. Considering that the rat body weights increased from around 300 g to around 400 g over the course of the study, and assuming that the rats ate a relatively constant amount of 25 g of food per day, the daily consumption of Br^− ranged from approximately 14.6 to 19.4 mg Br^− per kg body weight, in accordance with the invention.

[2] = Serum Br^− concentration in spontaneously hypertensive rats (SHR) after 10 weeks on diet, safety
Protocol: (FIG. 2A) Serum Br^− concentrations from rats fed a daily diet over 10 weeks of “AIN-76A”, “AIN-76A+8% NaCl”, “AIN-76A+Br”, or “AIN-76A+8% NaCl+Br”. Salt sensitive Dahl rats as well as Spontaneously Hypertensive Rats (SHR) were used in these studies. The two diets containing 8% NaCl (eg. “AIN-76A+8% NaCl” and “AIN-76A+8% NaCl+Br”) were fed to Dahl rats while the remaining two diets (eg. “AIN-76A” and “AIN-76A+Br”) were fed to SHR, as indicated in panel A. Serum Br^− measurements were determined using mass spectrometry.
Rats were administered 10 mg of NaBr per kg of AIN76A diet for 10 weeks. At the end of the study, serum Br^− levels in Br-treated rats were compared to serum Br^− levels in SHR on AIN76A as well as Wistar rats on AIN76A.

[3] = in vivo; cited from earlier work
[4] = test system: spontaneously hypertensive rat (SHR); assay: Blood pressure and heart rate (tail cuff) after single IP administration of NaBr in SHR; assay type: in vivo; details: single IP 154.5 μg NaBr per kg
Protocol: (A) In 10 week-old male SHR, single administration of Br^− reduced systolic and diastolic blood pressures compared to saline control. […] (C-D) Measured values for systolic (C) and diastolic (D) blood pressure, denoting statistical significance where achieved. 154.5 μg NaBr per kg rat body weight injected via IP. n=8 in Br Treatment group, =5 in saline control. BP & HR measured via tail cuff. *:p<0.05, T test.
(§1) The inventors next asked whether Br^− exerts any short-term activity in addition to the improved cardiac fibrosis noted after 10 weeks administration. Returning to the SHR preclinical model of disease, the inventors specifically asked whether Br^− administration modulates certain biomarkers associated with cardiovascular disease at one day post-administration. To this end, Br^− was administered to 8 SHR via intraperitoneal (IP) injection with an estimated 0.154 μg NaBr per gram body weight. For control, 8 SHR were administered saline via IP injection containing an estimated 4 ng NaBr per gram body weight. […] Moreover, the inventors believe that Br^− achieves its cardiovascular and renal therapeutic activities in part via modulation of natriuretic peptide signaling.

salt sensitive Dahl rats [5] = assay: Cardiac interstitial fibrosis, Masson's Trichrome staining, Dahl rats on high salt diet; assay type: in vivo, rat; details: 300 mg NaBr per kg AIN-76a+8% NaCl, 10 weeks, p<0.0001
Protocol: (§2) AIN-76A was base diet for all animals. […] Fibrosis determined from 5 μm tissue sections stained with Masson's Trichrome. […] Approximately 25-30 images were collected and processed per animal.

[6] = test system: brain natriuretic peptide (BNP); assay: Serum BNP by ELISA after single IP administration of NaBr in SHR; assay type: in vivo, rat; details: single IP 154.5 μg NaBr per kg, one day post-administration, p<0.05
Protocol: 154.5 μg NaBr per kg rat body weight injected via IP. n=8 in Br Treatment group, =5 in saline control. Baseline serum collection occurred two days prior to treatment. *: p<0.05, T test.
as §1

[7] = humans, in some circumstances, due to renal reabsorption; cited from earlier work
salt sensitive Dahl rats [8] = assay: Survival of salt sensitive Dahl rats on high salt (8% NaCl) diet with or without NaBr, 10 week study; assay type: in vivo, rat
Protocol: Control rats received AIN76A without supplemental chloride or bromide. 9 rats per study arm.
Dahl rats were administered a base diet of AIN76A with 8% NaCl, while a parallel arm was administered AIN76A with 8% NaCl and 300 mg of NaBr per kg of food. Mortality events were counted over the 10 week study.

[9] = test system: spontaneously hypertensive rat (SHR); assay: 10 week daily dietary Br^− administration in SHR disease model (heart weight, survival, urinary protein); assay type: in vivo
Protocol: (FIG. 5 A-B) Heart and kidney weights from 10 week repeat dosing study in SHR model. Br^− administered daily via diet, with AIN-76a as base diet. WKY served as genetic control. Both kidneys per animal weighed together. […] (FIG. 5C-D) Heart and kidney weights from panels A-B normalized to body weight. […] (FIG. 5E) Rats were administered a diet of AIN76A with or without 10 mg NaBr per kg feed (“SHR” and “SHR+Br” study arms, […]). Survival probability was calculated between SHR rats receiving dietary Br— and SHR rats receiving AIN76A control diet over a 10 week study period. As a second control, Wistar Kyoto (WKY) rats were fed AIN76A control diet over the same period. 8 rats per study arm.
Eight SHR animals received AIN76A diet for 10 weeks while 8 SHR animals received AIN76A supplemented with 10 mg NaBr/kg diet.

[10] = test system: spontaneously hypertensive rat (SHR); assay: Cardiac interstitial fibrosis, Masson's Trichrome staining, SHR; assay type: in vivo; details: 10 mg NaBr per kg AIN-76a, 10 weeks, p<0.0001
Protocol: as §2
Following conclusion of the in vivo study, rat hearts were formalin-fixed, paraffin-embedded, and 5 μm-thick sections were obtained for histochemical analysis.

[11] = dogs that do not respond to an initial course of Br^− treatment; cited from earlier work
[12] = test system: acute heart failure patients; details: cited from earlier work
[13] = acute decompensated heart failure (Sackner-Bernstein et al. 2005)

Molecule: [Br-].[Na+] [Br^−, sodium bromide]
- mean serum Br^− ([1]; 10 weeks on diet, end of study): 246.50 µM
- toxicity assessment of serum Br^− concentrations ([1]; daily diet over 10 weeks): well below those levels required to induce bromide-associated toxicity
- mean serum Br^− ([2]; 10 mg NaBr per kg AIN76A diet, 10 weeks): 281.7 µM
- toxicity assessment of serum Br^− concentrations ([2]; daily diet over 10 weeks): below the toxicity threshold
- circulating Br^− level at which the anti-epilepsy effect occurs [3]: > 6 mM
- systolic blood pressure ([4]; one day post-administration, vs saline control): statistically significant reductions; also recorded: reduced
- heart rate ([4]; p=0.052): possible reduction
- diastolic blood pressure ([4]; vs saline control): reduced
- cardiac fibrosis (Masson's Trichrome blue staining) (salt sensitive Dahl rats [5]): less cardiac fibrosis
- serum concentration of BNP peptide [6]: statistically significant increase; also recorded: significantly modulated
- half-life [7]: ≥ 170 h
- survival compared to High Salt alone (log rank test) (salt sensitive Dahl rats [8]; 9 rats per arm, p<0.001): significantly improved survival
- survival probability (salt sensitive Dahl rats [8]; AIN76A+8% NaCl with or without 300 mg NaBr per kg feed, 10 weeks): 67%
- heart weight (absolute) ([9]; 10 mg NaBr per kg AIN-76a, 10 weeks, vs SHR on AIN-76a alone, p<0.05): significantly reduced; also recorded: Statistically significant reduction
- treatment-induced mortality or electrolyte disturbances ([9]; 10 mg NaBr/kg diet, 10 weeks): No treatment-induced mortality or electrolyte disturbances
- survival probability among groups ([9]; 10 week study, 8 rats per arm): no statistical difference in survival
- heart weight normalized to body weight ([9]; 10 weeks): this trend was preserved; also recorded: Trends observed in absolute weights are preserved
- urinary microprotein/creatinine ratio (urinary protein levels) ([9]; after one day on study diet, persisted to end of study): significantly lower; also recorded: significantly reduced
- cardiac fibrosis (Masson's Trichrome blue staining) [10]: dramatic reduction in blue staining; also recorded: less cardiac fibrosis
- therapeutic serum Br^− for sedative effect [11]: above 25 mM

Molecule: CC[C@H](C)[C@@H]1NC(=O)[C@H](CCCNC(=N)N)NC(=O)[C@H](CC(=O)O)NC(=O)[C@H](CCSC)NC(=O)[C@H](CCCNC(=N)N)NC(=O)CNC(=O)CNC(=O)[C@H](Cc2ccccc2)NC(=O)[C@@H](NC(=O)[C@H](CO)NC(=O)[C@H](CO)NC(=O)[C@H](CCCNC(=N)N)NC(=O)[C@H](CCCNC(=N)N)NC(=O)[C@H](CC(C)C)NC(=O)[C@@H](N)CO)CSSC[C@@H](C(=O)N[C@@H](CC(N)=O)C(=O)N[C@@H](CO)C(=O)N[C@@H](Cc2ccccc2)C(=O)N[C@@H](CCCNC(=N)N)C(=O)N[C@@H](Cc2ccc(O)cc2)C(=O)O)NC(=O)CNC(=O)[C@H](CC(C)C)NC(=O)CNC(=O)[C@H](CO)NC(=O)[C@H](CCC(N)=O)NC(=O)[C@H](C)NC(=O)CNC1=O [carperitide]
- in-hospital mortality ([12]; acute heart failure patients in Japan (Matsue et al. 2015)): increased in-hospital mortality

Molecule: nesiritide
- mortality [12, 13]: increased mortality
- renal function [12, 13]: worsening renal function
